Results on 26 compounds are retold here after patent US20130084614A1, “METHODS OF REMOVING INHIBITORS FROM CELLULOSIC BIOMASS AND PRODUCING ALCOHOLS” (3M INNOVATIVE PROPERTIES COMPANY, priority 2010, published 2013).

For data set [1] the following is noted: cited from earlier work.
Data set [2] concerns E. Coli, FBR-5 strain. Briefly: Fermentation of extracted C5 fraction, sugar and ethanol by HPLC. The format is cell-based, Escherichia coli.
Data set [3] in a line: Confirmatory laboratory extraction of a synthetic inhibitor/sugar mixture. The format is physicochemical. As to conditions: 5 mL synthetic solution + 5 mL solvent, 20° C., HPLC. The text has this:
In order to define a standardized method of comparing solvents, a new parameter called extraction yield was created. Extraction yield is a ratio of the concentration of a species in the extract to the concentration of that species in the feed. […].
Another parameter, the extraction score, was defined in order to rank overall inhibitor removal performance. Each extraction yield of inhibitors and sugars was multiplied by a weighting factor determined by the importance of removing or retaining the particular compound in the feed. The resulting numbers were then summed to calculate the extraction score.
The confirmatory extraction of a synthetic inhibitor/sugar mixture was next carried out using inhibitors and sugars to mimic the conditions in acid-pretreated cellulosic fermentation feed. The synthetic solutions contained 1 g/L each of formic acid, lactic acid, acetic acid, furfural, HMF and vanillin as well as 20 g/L of glucose and 60 g/L of xylose. Five mL of this synthetic solution and 5 mL of solvent were added to a test tube and the test tubes were shaken in a Lab Line Instruments (Mumbai, India) “MULTI-WRIST SHAKER” at a setting of 8 for 10 min at 20° C. The mixture was allowed to settle overnight to phase separate completely. Inhibitor concentrations in each phase were analyzed by an Agilent Technologies (Santa Clara, Calif.) 1100 HPLC system consisting of a quaternary gradient pump, autosampler, heated column compartment, and diode array absorbance detector. Gradient elution was done on a YMC Company Ltd. (Kyoto, Japan) “YMC Carotenoid S-5” (C30) column with 0.05% phosphoric acid and a solvent ramp of 0% acetonitrile/100% water to 90% acetonitrile/10% water and back over 32.5 minutes. Based on the measured concentration of each inhibitor and sugar, extraction yields and scores were calculated and shown in Table 1 and reported as “laboratory extraction yield” and “laboratory extraction score”; (see footnotes 2 and 3).

Where [4] appears, read: CE2 liquid/liquid solvent extraction (not membrane), 0 hrs.
Setting [5] is: CE2 liquid/liquid solvent extraction (not membrane), 24 hrs.
Setting [6] is: EX4 multilayer cross-flow MSE, 0 hrs.
Setting [7] is: EX4 multilayer cross-flow MSE, 24 hrs.
Where [8] appears, read: EX4 multilayer cross-flow MSE, 48 hrs.
[9] abbreviates: IUPAC-NIST Solubility Data Series / Yaws' Handbook.

SMILES strings stand for the structures. Counter-ions that a name gives are not always drawn. Like-named read-outs stand apart in the source and are kept apart here.

Turning to `C1CCC2CCCCC2C1` (stereo not drawn) [decahydronapthalene], the “Water Solubility” value in data set [1] (literature values) is on record as 0.002 g/100 mL.
`CCCCOC(=O)/C=C\C(=O)OCCCC` [dibutyl maleate]: the Ethanol in data set [2] (setting [4]) was found to be 0 g/L; in data set [2] (setting [5]) it was 20 g/L; in data set [2] (EX3 single layer MSE, 0 hrs), 0 g/L; in data set [2] (EX3 single layer MSE, 24 hrs), 19 g/L. The Sugar in data set [2] (setting [4]) was found to be 45 g/L; in data set [2] (setting [5]), 1 g/L; in data set [2] (EX3 single layer MSE, 0 hrs) it was 51 g/L; in data set [2] (EX3 single layer MSE, 24 hrs) it was 2 g/L.
With `CCCCCCCCCCO` [1-decanol], in data set [3], the “laboratory extraction yield, Acetic acid” value was 0.281^3; the “laboratory extraction yield, Formic acid” value is on record as 0.180^3; the “laboratory extraction yield, Furfural” value is listed as 0.666^3; the “laboratory extraction yield, HMF” value is 0.280^3. In data set [3], the “laboratory extraction yield, Lactic acid” value was 0.120^3 and the “laboratory extraction yield, Vanillin” value is 0.911^3. In data set [2] (setting [4]), this compound gave an Ethanol of 0 g/L and a Sugar of 48 g/L. Besides, in data set [2] (setting [5]), the Ethanol came to 23 g/L and the Sugar stood at 1 g/L. In addition, in data set [2] (EX3 single layer MSE, 0 hrs), the Ethanol is given as 0 g/L and the Sugar is 48 g/L. In data set [2] (EX3 single layer MSE, 24 hrs), the Ethanol was 20 g/L and the Sugar amounted to 3 g/L. Further, in data set [2] (setting [6]), the Ethanol came out at 0 g/L and the Sugar was found to be 50 g/L. In data set [2] (setting [7]), this compound came in with an Ethanol of 12 g/L and a Sugar of 30 g/L. In data set [2] (setting [8]), this compound came in with an Ethanol of 18 g/L and a Sugar of 12 g/L. In addition, the “Water Solubility” value in data set [1] (literature values) was 0.10 g/100 mL.
Regarding `CCCCCCCCCCCCO` [1-dodecanol], in data set [3], the “laboratory extraction yield, Acetic acid” value is reported as 0.000^3; the “laboratory extraction yield, Formic acid” value is recorded as 0.020^3; the “laboratory extraction yield, Furfural” value is 0.593^3; the “laboratory extraction yield, HMF” value is 0.200^3. Also, in data set [3], the “laboratory extraction yield, Lactic acid” value is 0.050^3 and the “laboratory extraction yield, Vanillin” value is given as 0.903^3.
As to `O=Cc1ccccc1` [benzaldehyde], in data set [3], the “laboratory extraction yield, Acetic acid” value is 0.301^3; the “laboratory extraction yield, Formic acid” value is recorded as 0.200^3; the “laboratory extraction yield, Furfural” value is listed as 1.114^3; the “laboratory extraction yield, HMF” value is recorded as 0.841^3. Also, in data set [3], the “laboratory extraction yield, Lactic acid” value is 0.070^3 and the “laboratory extraction yield, Vanillin” value is listed as 1.392^3. Moreover, the “Water Solubility” value in data set [1] (literature values) is reported as 0.01 g/100 mL.
Take `CCOC(C)=O` [ethyl acetate, reference compound]: in data set [1] (setting [9]), the Water Solubility is 8.3 grams per 100 mL.
On to `CCCC(=O)OCC` [ethyl butyrate], for which, in data set [3], the “laboratory extraction yield, Acetic acid” value is listed as 0.221^3; the “laboratory extraction yield, Formic acid” value is 0.160^3; the “laboratory extraction yield, Furfural” value is recorded as 0.937^3; the “laboratory extraction yield, HMF” value is 0.360^3. Besides, in data set [3], the “laboratory extraction yield, Lactic acid” value is listed as 0.050^3 and the “laboratory extraction yield, Vanillin” value is listed as 1.001^3. For the same compound, the “Water Solubility” value in data set [1] (literature values) is on record as 0.50 g/100 mL.
Regarding `CCCCCCCCCCCC` [n-dodecane], the “Water Solubility” value in data set [1] (literature values) is 0.10 g/100 mL.
Turning to `CCCN(CCC)CCC` [tripropylamine], the “Water Solubility” value in data set [1] (literature values) is 0.10 g/100 mL.
As to `CC(C)CC(O)CC(C)C` [2,6-dimethyl-4-heptanol], in data set [3], the “laboratory extraction yield, Acetic acid” value is 0.301^3; the “laboratory extraction yield, Formic acid” value is reported as 0.180^3; the “laboratory extraction yield, Furfural” value is 0.593^3; the “laboratory extraction yield, HMF” value is 0.220^3. Further, in data set [3], the “laboratory extraction yield, Lactic acid” value is on record as 0.070^3 and the “laboratory extraction yield, Vanillin” value was 0.851^3. In data set [1] (literature values), the “Water Solubility” value is given as 0.045 g/100 mL.
As to `CCCCCCC(C)O` (stereo not drawn) [2-octanol], in data set [3], the “laboratory extraction yield, Acetic acid” value is 0.397^3; the “laboratory extraction yield, Formic acid” value is on record as 0.280^3; the “laboratory extraction yield, Furfural” value is given as 0.687^3; the “laboratory extraction yield, HMF” value is listed as 0.394^3. Moreover, in data set [3], the “laboratory extraction yield, Lactic acid” value was 0.155^3 and the “laboratory extraction yield, Vanillin” value is 0.937^3. Moreover, the “Water Solubility” value in data set [1] (literature values) is on record as 0.11 g/100 mL.
As to `CCCCCCCCN(CCCCCCCC)CCCCCCCC` [Trioctylamine], the “Water Solubility” value in data set [1] (literature values) is reported as 0.10 g/100 mL.
As to `CC(=O)c1ccccc1` [Acetophenone], in data set [3], the “laboratory extraction yield, Acetic acid” value was 0.351^3; the “laboratory extraction yield, Formic acid” value is reported as 0.234^3; the “laboratory extraction yield, Furfural” value was 0.917^3; the “laboratory extraction yield, HMF” value is 0.647^3. In data set [3], the “laboratory extraction yield, Lactic acid” value is listed as 0.137^3 and the “laboratory extraction yield, Vanillin” value is recorded as 0.700^3. The “Water Solubility” value in data set [1] (literature values) was 0.10 g/100 mL.
Consider `CCCCCC` [n-hexane], for which the “Water Solubility” value in data set [1] (literature values) is recorded as 0.10 g/100 mL.
In the case of `CCCCC(C)O` (stereo not drawn) [2-hexanol], in data set [1] (literature values), the “Water Solubility” value is reported as 0.35 g/100 mL.
`CC(C)OC(C)C` [isopropyl ether]: the “Water Solubility” value in data set [1] (literature values) is given as 0.20 g/100 mL.
For `C1CCCCC1` [cyclohexane], the “Water Solubility” value in data set [1] (literature values) is 0.0017 g/100 mL.
In the case of `CCOCC` [diethyl ether, reference compound], the Water Solubility in data set [1] (setting [9]) is 6.9 grams per 100 mL.
As to `CCCCCCCC/C=C\CCCCCCCCO` [Oleyl alcohol], the “Water Solubility” value in data set [1] (literature values) is 0.018 g/100 mL.
As to `CCCCCCCCCCCCCC` [n-tetradecane], the “Water Solubility” value in data set [1] (literature values) is 0.10 g/100 mL.
On to `CCCCNCCCC` [Dibutylamine], for which, in data set [1] (literature values), the “Water Solubility” value is 0.35 g/100 mL.
With `CCCCCCCCO` [1-octanol], in data set [3], the “laboratory extraction yield, Acetic acid” value is reported as 0.361^3; the “laboratory extraction yield, Formic acid” value is on record as 0.239^3; the “laboratory extraction yield, Furfural” value is 0.728^3; the “laboratory extraction yield, HMF” value is listed as 0.360^3. Moreover, in data set [3], the “laboratory extraction yield, Lactic acid” value is on record as 0.180^3 and the “laboratory extraction yield, Vanillin” value was 0.931^3. Moreover, the “Water Solubility” value in data set [1] (literature values) was 0.11 g/100 mL.
On to `CCCCCCCC(C)=O` [2-nonanone], for which the “Water Solubility” value in data set [1] (literature values) was 0.050 g/100 mL.
Take `CCCCCCC(=O)CC` [3-nonanone]: in data set [3], the “laboratory extraction yield, Acetic acid” value is listed as 0.321^3; the “laboratory extraction yield, Formic acid” value was 0.130^3; the “laboratory extraction yield, Furfural” value was 0.895^3; the “laboratory extraction yield, HMF” value is on record as 0.310^3. Besides, in data set [3], the “laboratory extraction yield, Lactic acid” value is on record as 0.030^3 and the “laboratory extraction yield, Vanillin” value is recorded as 0.931^3. Also, the “Water Solubility” value in data set [1] (literature values) is given as 0.010 g/100 mL.
`CCCCCCCCCC` [n-decane]: the “Water Solubility” value in data set [1] (literature values) was 0.10 g/100 mL.
`CCCCC(CC)CO` (stereo not drawn) [2-ethyl-1-hexanol]: in data set [3], the “laboratory extraction yield, Acetic acid” value is 0.352^3; the “laboratory extraction yield, Formic acid” value was 0.213^3; the “laboratory extraction yield, Furfural” value is given as 0.669^3; the “laboratory extraction yield, HMF” value is on record as 0.337^3. Besides, in data set [3], the “laboratory extraction yield, Lactic acid” value was 0.112^3 and the “laboratory extraction yield, Vanillin” value is on record as 0.918^3.
